From US12673954B2 (BRISTOL-MYERS SQUIBB COMPANY, priority 2021, dated 2026)
Read-outs that look alike come from different tables or passages of the source.

How the values were obtained:
[1] = system: NF-κB pathway, THP1-Dual™ cells; assay: STING reporter assay in THP1-Dual cells, NF-κB pathway (SEAP, QUANTI-Blue); type: cell-based, human; conditions: read-out: NFkB (EC50 μM)
In short: (§1)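 THP-1-derived dual-reporter cells treated with serially diluted compounds (final top concentration 100 μM) for 20 h at 37° C. NF-κB read as SEAP via QUANTI-Blue at OD620; IRF read as Lucia luminescence via QUANTI-Luc after 5 min. 100% activation set by 100 μM cGAMP, baseline by DMSO.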

[2] = system: IRF pathway, THP1-Dual™ cells; assay: STING reporter assay in THP1-Dual cells, IRF pathway (Lucia luciferase, QUANTI-Luc); type: cell-based, human; conditions: read-out: IRF (EC50 μM)
In short: as §1

[3] = Homo sapiens, THP1-Dual, 20 h, THP1-Dual cells, 10% human plasma, 20 hours, SEAP, 100% activation = 100 μM cGAMP
[4] = Homo sapiens, THP1-Dual, 20 h, THP1-Dual cells, 10% human plasma, 20 hours, Lucia luciferase, 100% activation = 100 μM cGAMP
[5] = THP1-Dual cells, 10% human plasma, 20 hours, SEAP, 100% activation = 100 μM cGAMP
[6] = THP1-Dual cells, 10% human plasma, 20 hours, Lucia luciferase, 100% activation = 100 μM cGAMP

Compound	EC50 [1, 3]	EC50 [2, 4]	also measured
C[Si](C)(C)CCSC(=O)c1cc(F)cc2c(Cl)c(CNC(=O)c3cnn4cccnc34)oc12 [EXAMPLE 392, S-(2-(Trimethylsilyl)ethyl) 3-chloro-5-fluoro-2-((pyrazolo[1,5-a]pyrimidine-3-carboxamido)methyl)benzofuran-7-carbothioate]	–	–	EC50 ([1]; Homo sapiens, THP1-Dual, 20 h): 2.7 µM; EC50 ([2]; Homo sapiens, THP1-Dual, 20 h): 3.4 µM
CSC(=O)c1cc(F)cc2c(Cl)c(CNC(=O)c3cnn4cccnc34)oc12 [EXAMPLE 393, S-Methyl 3-chloro-5-fluoro-2-((pyrazolo[1,5-a]pyrimidine-3-carboxamido)methyl)benzofuran-7-carbothioate]	0.3 µM	0.39 µM	–
C[Si](C)(C)CCSC(=O)c1cc(Cl)cc2cc(CNC(=O)c3cnn4cccnc34)oc12 [EXAMPLE 394]	–	–	EC50 ([1]; Homo sapiens, THP1-Dual, 20 h): 11 µM; EC50 ([2]; Homo sapiens, THP1-Dual, 20 h): > 100 µM
CSC(=O)c1cc(Cl)cc2cc(CNC(=O)c3cnn4cccnc34)oc12 [EXAMPLE 395]	1.9 µM	2.1 µM	–
CSC(=O)c1cc(Cl)cc2c(Cl)c(CNC(=O)c3cnn4cccnc34)oc12 [EXAMPLE 396]	0.37 µM	0.36 µM	–
CSC(=O)c1cc(C)cc2c(Cl)c(CNC(=O)c3cnn4cccnc34)oc12 [EXAMPLE 397]	0.47 µM	0.46 µM	–
C[C@H](NC(=O)c1cnn2cccnc12)c1cc2cc(F)cc(C(=O)SCC[Si](C)(C)C)c2o1 [EXAMPLE 398, S-(2-(Trimethylsilyl)ethyl) (S)-5-fluoro-2-(1-(pyrazolo[1,5-a]pyrimidine-3-carboxamido)ethyl)benzofuran-7-carbothioate]	–	–	EC50 ([1]; Homo sapiens, THP1-Dual, 20 h): 5.7 µM; EC50 ([2]; Homo sapiens, THP1-Dual, 20 h): 9.4 µM
C[C@H](NC(=O)c1cnn2cccnc12)c1cc2cc(Cl)cc(C(=O)SCC[Si](C)(C)C)c2o1 [EXAMPLE 400, S-(2-(Trimethylsilyl)ethyl) (S)-5-chloro-2-(1-(pyrazolo[1,5-a]pyrimidine-3-carboxamido)ethyl)benzofuran-7-carbothioate]	–	–	EC50 ([1]; Homo sapiens, THP1-Dual, 20 h): 22 µM; EC50 ([2]; Homo sapiens, THP1-Dual, 20 h): 25 µM
CSC(=O)c1cc(Cl)cc2c(Cl)c([C@H](C)NC(=O)c3cnn4cccnc34)oc12 [EXAMPLE 402]	2.4 µM	2.4 µM	–
O=C(NCC(F)(F)F)c1cc(Cl)cc2cc(CNC(=O)c3cnn4cccnc34)oc12 [EXAMPLE 403, N-((5-Chloro-7-((2,2,2-trifluoroethyl)carbamoyl)benzofuran-2-yl)methyl)pyrazolo[1,5-a]pyrimidine-3-carboxamide]	97 µM	> 100 µM	–
Cc1cc(C(N)=O)c2oc(CNC(=O)c3cnn4cccnc34)cc2c1 [EXAMPLE 404, N-((7-Carbamoyl-5-methylbenzofuran-2-yl)methyl)pyrazolo[1,5-a]pyrimidine-3-carboxamide]	83 µM	> 100 µM	–
O=C(NO)c1cc(Cl)cc2cc(CNC(=O)c3cnn4cccnc34)oc12 [EXAMPLE 405, N-((5-Chloro-7-(hydroxycarbamoyl)benzofuran-2-yl)methyl)pyrazolo[1,5-a]pyrimidine-3-carboxamide]	61 µM	30 µM	–
CONC(=O)c1cc(Cl)cc2cc(CNC(=O)c3cnn4cccnc34)oc12 [EXAMPLE 406, N-((5-Chloro-7-(methoxycarbamoyl)benzofuran-2-yl)methyl)pyrazolo[1,5-a]pyrimidine-3-carboxamide]	7.1 µM	9.4 µM	–
O=C(NCc1cc2cc(Cl)cc(-c3nnn[nH]3)c2o1)c1cncc2cccnc12 [EXAMPLE 410, N-((5-Chloro-7-(1H-tetrazol-5-yl)benzofuran-2-yl)methyl)-1,6-naphthyridine-8-carboxamide]	> 100 µM	79 µM	–
COC(=O)Cc1cc(F)cc2cc(CNC(=O)c3cnn4cccnc34)oc12 [Example 47, Methyl 2-(5-fluoro-2-((pyrazolo[1,5-a]pyrimidine-3-carboxamido)methyl)benzofuran-7-yl)acetate]	8.5 µM	6.7 µM	–
COC(=O)c1cc(Cl)cc2cc(CNC(=O)c3cnn4ccc(OC)nc34)oc12 [Example 51, Methyl 5-chloro-2-((5-methoxypyrazolo[1,5-a]pyrimidine-3-carboxamido)methyl) benzofuran-7-carboxylate]	–	–	EC50 [1, 5]: 3.1 µM; EC50 [2, 6]: 4 µM
COC(=O)c1cc(Cl)cc2cc(CNC(=O)c3cnc4cccnn34)oc12 [Example 52, Methyl 5-chloro-2-((imidazo[1,2-b]pyridazine-3-carboxamido)methyl) benzofuran-7-carboxylate]	–	–	EC50 [1, 5]: 9.8 µM; EC50 [2, 6]: 8 µM
COC(=O)c1cc(Cl)cc2cc(CNC(=O)c3cc(N)ccn3)oc12 [Example 53, Methyl 2-((4-aminopicolinamido)methyl)-5-chlorobenzofuran-7-carboxylate]	27 µM	22 µM	–
COC(=O)c1cc(Cl)cc2cc(CNC(=O)c3cnn4ccc(C)nc34)oc12 [Example 54, Methyl 5-chloro-2-((5-methylpyrazolo[1,5-a]pyrimidine-3-carboxamido)methyl) benzofuran-7-carboxylate]	–	–	EC50 [1, 5]: 2.6 µM; EC50 [2, 6]: 2.6 µM
COC(=O)c1cc(Cl)cc2cc(CNC(=O)c3cnn4cc(C)cnc34)oc12 [Example 55, Methyl 5-chloro-2-((6-methylpyrazolo[1,5-a]pyrimidine-3-carboxamido)methyl) benzofuran-7-carboxylate]	–	–	EC50 [1, 5]: 1.1 µM; EC50 [2, 6]: 1.1 µM
COC(=O)c1cc(Cl)cc2cc(CNC(=O)c3cnn4c(C)ccnc34)oc12 [Example 56, Methyl 5-chloro-2-((7-methylpyrazolo[1,5-a]pyrimidine-3-carboxamido)methyl) benzofuran-7-carboxylate]	–	–	EC50 [1, 5]: > 33 µM; EC50 [2, 6]: 30 µM
COC(=O)c1cc(Cl)cc2cc(CNC(=O)c3cnn4cc(Cl)cnc34)oc12 [Example 57, Methyl 5-chloro-2-((6-chloropyrazolo[1,5-a]pyrimidine-3-carboxamido)methyl) benzofuran-7-carboxylate]	–	–	EC50 [1, 5]: 8.1 µM; EC50 [2, 6]: 9.5 µM
COC(=O)c1cc(Cl)cc2cc(CNC(=O)c3cnccn3)oc12 [Example 58, Methyl 5-chloro-2-((pyrazine-2-carboxamido)methyl) benzofuran-7-carboxylate]	–	–	EC50 [1, 5]: 2.9 µM; EC50 [2, 6]: 2.7 µM
COC(=O)c1cc(Cl)cc2cc(CNC(=O)c3cncc(C)n3)oc12 [Example 59, Methyl 5-chloro-2-((6-methylpyrazine-2-carboxamido)methyl) benzofuran-7-carboxylate]	–	–	EC50 [1, 5]: 2.6 µM; EC50 [2, 6]: 2.4 µM
COC(=O)c1cc(Cl)cc2cc(CNC(=O)c3cncc(OC)n3)oc12 [Example 60, Methyl 5-chloro-2-((6-methoxypyrazine-2-carboxamido)methyl) benzofuran-7-carboxylate]	–	–	EC50 [1, 5]: 8.9 µM; EC50 [2, 6]: 7.7 µM

Further lines, with some results ahead:

EC50 [1, 3]	EC50 [2, 4]	Compound	also measured
0.56 µM	0.58 µM	Cc1cc(C(=O)SCC(F)(F)F)c2oc(CNC(=O)c3cnn4cccnc34)cc2c1 [EXAMPLE 389, S-(2,2,2-Trifluoroethyl) 5-methyl-2-((pyrazolo[1,5-a]pyrimidine-3-carboxamido)methyl)benzofuran-7-carbothioate]	–
0.29 µM	0.53 µM	CCSC(=O)c1cc(C)cc2cc(CNC(=O)c3cnn4cccnc34)oc12 [EXAMPLE 390, S-Ethyl 5-methyl-2-((pyrazolo[1,5-a]pyrimidine-3-carboxamido)methyl)benzofuran-7-carbothioate]	–
0.61 µM	0.75 µM	CSC(=O)c1cc(C)cc2cc(CNC(=O)c3cnn4cccnc34)oc12 [EXAMPLE 391, S-Methyl 5-methyl-2-((pyrazolo[1,5-a]pyrimidine-3-carboxamido)methyl)benzofuran-7-carbothioate]	–
1.5 µM	1.3 µM	CSC(=O)c1cc(F)cc2cc([C@H](C)NC(=O)c3cnn4cccnc34)oc12 [EXAMPLE 399, S-Methyl (S)-5-fluoro-2-(1-(pyrazolo[1,5-a]pyrimidine-3-carboxamido)ethyl)benzofuran-7-carbothioate]	–
1.9 µM	1.9 µM	CSC(=O)c1cc(Cl)cc2cc([C@H](C)NC(=O)c3cnn4cccnc34)oc12 [EXAMPLE 401]	–
37 µM	30 µM	Cc1cc(C(=O)NO)c2oc(CNC(=O)c3cnn4cccnc34)c(Cl)c2c1 [EXAMPLE 407, N-((3-chloro-7-(hydroxycarbamoyl)-5-methylbenzofuran-2-yl)methyl)pyrazolo[1,5-a]pyrimidine-3-carboxamide]	–
1.2 µM	0.91 µM	CONC(=O)c1cc(C)cc2c(Cl)c(CNC(=O)c3cnn4cccnc34)oc12 [EXAMPLE 408, N-((3-chloro-7-(methoxycarbamoyl)-5-methylbenzofuran-2-yl)methyl)pyrazolo[1,5-a]pyrimidine-3-carboxamide]	–
0.68 µM	0.64 µM	COC(=O)c1cc(Cl)cc2cc(CNC(=O)c3cnn4cccnc34)oc12 [Example 48, Methyl 5-chloro-2-((pyrazolo[1,5-a]pyrimidine-3-carboxamido)methyl)benzofuran-7-carboxylate]	–
93 µM	71 µM	COC(=O)c1cc(Cl)cc2cc(CNC(=O)c3[nH]nc4cccnc34)oc12 [Example 49, Methyl 2-((2H-pyrazolo[4,3-b]pyridine-3-carboxamido)methyl)-5-chlorobenzofuran-7-carboxylate]	–
1.1 µM	0.93 µM	COC(=O)c1cc(Cl)cc2cc(CNC(=O)c3cncc4cccnc34)oc12 [Example 50, Methyl 2-((1,6-naphthyridine-8-carboxamido)methyl)-5-chlorobenzofuran-7-carboxylate]	–
